From the supplement of paper PMC10307832

How the values were obtained:
Assay in all cases: relative viability (nuclei count vs DMSO), 5 days (fraction); higher = more cells survive
[1] = system: 201T
How it was run: (§1)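 Cells from lung cancer lines were seeded into 1536-well plates and, one day later, dosed by pin tool. Treatments were either a single drug or a fixed dose of an anchor drug with five library-drug doses (not always all listed) in √10 steps. After 5 days, nuclei were stained in a one-step fixation (final 0.05% Triton X-100, 1% formaldehyde, 1 ug/ml Hoechst) and counted on 4× images, and relative viability is the treated-to-vehicle nuclei ratio, as the median of duplicate plates.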

[2] = system: COR-L 105
How it was run: as §1

[3] = system: ChaGo-K-1
How it was run: as §1

[4] = system: EPLC-272H
How it was run: as §1

[5] = system: H3255
How it was run: as §1

[6] = system: HCC-78
How it was run: as §1

[7] = system: HCC-827
How it was run: as §1

[8] = system: LC-2-ad
How it was run: as §1

[9] = system: LCLC-97TM1
How it was run: as §1

[10] = system: NCI-H1666
How it was run: as §1

[11] = system: NCI-H1915
How it was run: as §1

[12] = system: NCI-H2087
How it was run: as §1

[13] = system: NCI-H2126
How it was run: as §1

[14] = system: NCI-H2347
How it was run: as §1

[15] = system: NCI-H23
How it was run: as §1

[16] = system: NCI-H2405
How it was run: as §1

[17] = system: NCI-H520
How it was run: as §1

[18] = system: NCI-H647
How it was run: as §1

[19] = system: NCI-H650
How it was run: as §1

[20] = system: NCI-H661
How it was run: as §1

[21] = system: PC-14
How it was run: as §1

[22] = system: RERF-LC-KJ
How it was run: as §1

COc1nc(C)cnc1NS(=O)(=O)c1cccnc1-c1ccc(-c2nnco2)cc1 [Zibotentan] + Cc1cc(Nc2cc(N3CCN(C)CC3)nc(Sc3ccc(NC(=O)C4CC4)cc3)n2)n[nH]1 [Tozasertib] (partner 0.1 µM)
relative viability ([1]; first compound 0.08 µM): 1.07
relative viability ([1]; first compound 0.253 µM): 0.881
relative viability ([1]; first compound 0.8 µM): 0.955
relative viability ([1]; first compound 2.53 µM): 1.04
relative viability ([2]; first compound 0.08 µM): 0.309
relative viability ([2]; first compound 0.253 µM): 0.344
relative viability ([2]; first compound 0.8 µM): 0.371
relative viability ([2]; first compound 2.53 µM): 0.362
relative viability ([3]; first compound 0.08 µM): 0.208
relative viability ([3]; first compound 0.253 µM): 0.218
relative viability ([3]; first compound 0.8 µM): 0.21
relative viability ([3]; first compound 2.53 µM): 0.24
relative viability ([4]; first compound 0.08 µM): 0.264
relative viability ([4]; first compound 0.253 µM): 0.234
relative viability ([4]; first compound 0.8 µM): 0.331
relative viability ([4]; first compound 2.53 µM): 0.281
relative viability ([5]; first compound 0.08 µM): 0.693
relative viability ([5]; first compound 0.253 µM): 0.604
relative viability ([5]; first compound 0.8 µM): 0.742
relative viability ([5]; first compound 2.53 µM): 0.888
relative viability ([6]; first compound 0.08 µM): 0.526
relative viability ([6]; first compound 0.253 µM): 0.393
relative viability ([6]; first compound 0.8 µM): 0.306
relative viability ([6]; first compound 2.53 µM): 0.435
relative viability ([7]; first compound 0.08 µM): 0.438
relative viability ([7]; first compound 0.253 µM): 0.411
relative viability ([7]; first compound 0.8 µM): 0.409
relative viability ([7]; first compound 2.53 µM): 0.371
relative viability ([8]; first compound 0.08 µM): 0.436
relative viability ([8]; first compound 0.8 µM): 0.574
relative viability ([8]; first compound 2.53 µM): 0.452
relative viability ([9]; first compound 0.08 µM): 0.228
relative viability ([9]; first compound 0.253 µM): 0.237
relative viability ([9]; first compound 0.8 µM): 0.21
relative viability ([9]; first compound 2.53 µM): 0.233
relative viability ([10]; first compound 0.08 µM): 0.582
relative viability ([10]; first compound 0.253 µM): 0.593
relative viability ([10]; first compound 0.8 µM): 0.784
relative viability ([10]; first compound 2.53 µM): 0.646
relative viability ([11]; first compound 0.08 µM): 0.453
relative viability ([11]; first compound 0.253 µM): 0.409
relative viability ([11]; first compound 0.8 µM): 0.428
relative viability ([11]; first compound 2.53 µM): 0.417
relative viability ([12]; first compound 0.08 µM): 0.249
relative viability ([12]; first compound 0.253 µM): 0.268
relative viability ([12]; first compound 0.8 µM): 0.249
relative viability ([12]; first compound 2.53 µM): 0.238
relative viability ([13]; first compound 0.08 µM): 0.891
relative viability ([13]; first compound 0.8 µM): 0.813
relative viability ([13]; first compound 2.53 µM): 0.875
relative viability ([14]; first compound 0.253 µM): 0.49
relative viability ([14]; first compound 0.8 µM): 0.432
relative viability ([14]; first compound 2.53 µM): 0.537
relative viability ([15]; first compound 0.08 µM): 0.284
relative viability ([15]; first compound 0.253 µM): 0.331
relative viability ([15]; first compound 0.8 µM): 0.314
relative viability ([15]; first compound 2.53 µM): 0.413
relative viability ([16]; first compound 0.08 µM): 0.747
relative viability ([16]; first compound 0.253 µM): 0.716
relative viability ([16]; first compound 0.8 µM): 0.798
relative viability ([16]; first compound 2.53 µM): 0.77
relative viability ([17]; first compound 0.08 µM): 0.431
relative viability ([17]; first compound 0.253 µM): 0.479
relative viability ([17]; first compound 0.8 µM): 0.441
relative viability ([17]; first compound 2.53 µM): 0.442
relative viability ([18]; first compound 0.08 µM): 0.307
relative viability ([18]; first compound 0.253 µM): 0.183
relative viability ([18]; first compound 0.8 µM): 0.298
relative viability ([18]; first compound 2.53 µM): 0.262
relative viability ([19]; first compound 0.08 µM): 0.871
relative viability ([19]; first compound 0.253 µM): 0.699
relative viability ([19]; first compound 0.8 µM): 0.692
relative viability ([19]; first compound 2.53 µM): 0.738
relative viability ([20]; first compound 0.08 µM): 0.369
relative viability ([20]; first compound 0.253 µM): 0.334
relative viability ([20]; first compound 0.8 µM): 0.347
relative viability ([20]; first compound 2.53 µM): 0.364
relative viability ([21]; first compound 0.08 µM): 0.555
relative viability ([21]; first compound 0.253 µM): 0.527
relative viability ([21]; first compound 0.8 µM): 0.583
relative viability ([21]; first compound 2.53 µM): 0.567
relative viability ([22]; first compound 0.08 µM): 0.479
relative viability ([22]; first compound 0.8 µM): 0.562
relative viability ([22]; first compound 2.53 µM): 0.493

COc1nc(C)cnc1NS(=O)(=O)c1cccnc1-c1ccc(-c2nnco2)cc1 [Zibotentan] + Cc1nc(Nc2ncc(C(=O)Nc3c(C)cccc3Cl)s2)cc(N2CCN(CCO)CC2)n1 [Dasatinib] (partner 0.075 µM)
relative viability ([1]; first compound 0.08 µM): 0.676
relative viability ([1]; first compound 0.253 µM): 0.569
relative viability ([1]; first compound 0.8 µM): 0.576
relative viability ([1]; first compound 2.53 µM): 0.624
relative viability ([2]; first compound 0.08 µM): 0.32
relative viability ([2]; first compound 0.253 µM): 0.353
relative viability ([2]; first compound 0.8 µM): 0.381
relative viability ([2]; first compound 2.53 µM): 0.405
relative viability ([3]; first compound 0.08 µM): 0.604
relative viability ([3]; first compound 0.253 µM): 0.646
relative viability ([3]; first compound 0.8 µM): 0.498
relative viability ([3]; first compound 2.53 µM): 0.626
relative viability ([4]; first compound 0.08 µM): 0.375
relative viability ([4]; first compound 0.253 µM): 0.287
relative viability ([4]; first compound 0.8 µM): 0.331
relative viability ([4]; first compound 2.53 µM): 0.33
relative viability ([5]; first compound 0.08 µM): 0.406
relative viability ([5]; first compound 0.253 µM): 0.311
relative viability ([5]; first compound 0.8 µM): 0.632
relative viability ([5]; first compound 2.53 µM): 0.325
relative viability ([6]; first compound 0.08 µM): 0.513
relative viability ([6]; first compound 0.253 µM): 0.313
relative viability ([6]; first compound 0.8 µM): 0.391
relative viability ([6]; first compound 2.53 µM): 0.309
relative viability ([7]; first compound 0.08 µM): 0.394
relative viability ([7]; first compound 0.253 µM): 0.267
relative viability ([7]; first compound 0.8 µM): 0.247
relative viability ([7]; first compound 2.53 µM): 0.384
relative viability ([8]; first compound 0.08 µM): 0.688
relative viability ([8]; first compound 0.8 µM): 0.625
relative viability ([8]; first compound 2.53 µM): 0.511
relative viability ([9]; first compound 0.08 µM): 0.823
relative viability ([9]; first compound 0.253 µM): 0.841
relative viability ([9]; first compound 0.8 µM): 0.882
relative viability ([9]; first compound 2.53 µM): 0.861
relative viability ([10]; first compound 0.08 µM): 0.883
relative viability ([10]; first compound 0.253 µM): 0.706
relative viability ([10]; first compound 0.8 µM): 0.821
relative viability ([10]; first compound 2.53 µM): 0.907
relative viability ([11]; first compound 0.08 µM): 0.382
relative viability ([11]; first compound 0.253 µM): 0.29
relative viability ([11]; first compound 0.8 µM): 0.336
relative viability ([11]; first compound 2.53 µM): 0.29
relative viability ([12]; first compound 0.08 µM): 0.851
relative viability ([12]; first compound 0.253 µM): 0.573
relative viability ([12]; first compound 0.8 µM): 0.923
relative viability ([12]; first compound 2.53 µM): 0.814
relative viability ([13]; first compound 0.08 µM): 0.632
relative viability ([13]; first compound 0.8 µM): 0.53
relative viability ([13]; first compound 2.53 µM): 0.685
relative viability ([14]; first compound 0.253 µM): 0.294
relative viability ([14]; first compound 0.8 µM): 0.298
relative viability ([14]; first compound 2.53 µM): 0.331
relative viability ([15]; first compound 0.08 µM): 0.859
relative viability ([15]; first compound 0.253 µM): 0.711
relative viability ([15]; first compound 0.8 µM): 0.553
relative viability ([15]; first compound 2.53 µM): 0.928
relative viability ([16]; first compound 0.08 µM): 0.238
relative viability ([16]; first compound 0.253 µM): 0.193
relative viability ([16]; first compound 0.8 µM): 0.218
relative viability ([16]; first compound 2.53 µM): 0.212
relative viability ([17]; first compound 0.08 µM): 0.252
relative viability ([17]; first compound 0.253 µM): 0.222
relative viability ([17]; first compound 0.8 µM): 0.224
relative viability ([17]; first compound 2.53 µM): 0.237
relative viability ([18]; first compound 0.08 µM): 0.145
relative viability ([18]; first compound 0.253 µM): 0.185
relative viability ([18]; first compound 0.8 µM): 0.215
relative viability ([18]; first compound 2.53 µM): 0.195
relative viability ([19]; first compound 0.08 µM): 0.49
relative viability ([19]; first compound 0.253 µM): 0.418
relative viability ([19]; first compound 0.8 µM): 0.46
relative viability ([19]; first compound 2.53 µM): 0.468
relative viability ([20]; first compound 0.08 µM): 0.924
relative viability ([20]; first compound 0.253 µM): 0.805
relative viability ([20]; first compound 0.8 µM): 0.943
relative viability ([20]; first compound 2.53 µM): 0.939
relative viability ([21]; first compound 0.08 µM): 0.26
relative viability ([21]; first compound 0.253 µM): 0.172
relative viability ([21]; first compound 0.8 µM): 0.243
relative viability ([21]; first compound 2.53 µM): 0.277
relative viability ([22]; first compound 0.08 µM): 0.863
relative viability ([22]; first compound 0.8 µM): 0.671
relative viability ([22]; first compound 2.53 µM): 0.749
